Data taken from patent US20100234455A1, “Histone Deacetylase Inhibitors” (Errant Gene Therapeutics, LLC, priority 2004, published 2010).

What was measured:
[1] = test system: LNCaP cells (human prostate cancer cells); test: p53 acetylation, p21 and Bax effects in LNCaP cells; assay type: cell-based
PC-3 cells = test: Bax and p21 activation in PC-3 cells (p53-/-, no HDAC2); assay type: cell-based; conditions: do not express HDAC2
tumors = conditions: cited from earlier work
HDAC = conditions: cited from earlier work
rat fibroblasts = conditions: cited from earlier work

O=C(C=CC=CC=Cc1ccccc1)NO [7-phenyl-2,4,6-heptatrienoylhydroxamic acid]
level of histone acetylation [1]: increasing the level of histone acetylation | Bax mitochondrial translocation and cleavage ([1]; LNCaP cells): induced Bax mitochondrial translocation and cleavage | cell cycle arrest ([1]; LNCaP cells): cell cycle arrest, primarily at G2/M interface | degradation of HDAC2 ([1]; LNCaP cells): induction of selective degradation of HDAC2 | levels of total p53 ([1]; LNCaP cells): increases the levels of total p53 | p21 levels ([1]; LNCaP cells): p53-dependent increase in p21 levels | steady state level of cytosolic Bax ([1]; LNCaP cells): increased the steady state level of cytosolic Bax | acetylation of p53 at Lys320 ([1]; Lys320): not Lys320 | acetylation of p53 at Lys373 and Lys382 ([1]; Lys373 and Lys382): stabilizes the acetylation of p53 at amino acids Lys373 and Lys382 | p53 dependent activation of Bax (PC-3 cells): absent | p53 independent p21 activation (PC-3 cells): p53 independent p21 activation was observed

O=C(CCCCCCC(=O)Nc1ccccc1)NO [SAHA, suberoylanilide hydroxamic acid]
formation of tumors in mice (tumors): prevent the formation of tumors in mice | HDAC activity (HDAC): HDAC activity is inhibited

CC(/C=C/C(=O)NO)=C\[C@@H](C)C(=O)c1ccc(N(C)C)cc1 [TSA, trichostatin A]
formation of tumors in mice (tumors): prevent the formation of tumors in mice | Bax mitochondrial translocation and cleavage ([1]; LNCaP cells): nor did it affect Bax translocation and cleavage | cell cycle arrest ([1]; LNCaP cells): induced p21 and cell cycle arrest | p21 levels ([1]; LNCaP cells): induced p21 | steady state level of cytosolic Bax ([1]; LNCaP cells): did not alter Bax levels | p53 dependent activation of Bax (PC-3 cells): absent | p53 independent p21 activation (PC-3 cells): p53 independent p21 activation was observed | HDAC activity (HDAC): HDAC activity is inhibited | cell cycle arrest of rat fibroblasts (rat fibroblasts): causes arrest of rat fibroblasts at the G1 and G2 phases of the cell cycle
